Assay [1] has as its system NCI-H358 cells (KRAS G12C mutant). The assay can be described thus: NCI-H358 cell proliferation inhibition (CellTiter-Glo). Format: cell-based. The settings on record: Homo sapiens, NCI-H358, 72 h; H358 cells (G12C mutation), 3 days, Table 6; read-out: NCI-H358 (IC50). On the technique in general: In ATP-based viability assays light output follows the ATP content of the culture.

In assay [2] the test system is NCI-H358-AMGR drug-resistant cell line. Kind of assay: NCI-H358-AMGR drug-resistant cell proliferation inhibitory activity test. Format: cell-based. Particulars: 72 h; NCI-H358-AMGR drug-resistant cells, 3 days incubation, CellTiter-Glo. A digest of the protocol:
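Luminescent CellTiter-Glo read-out after 3-day, 37° C compound exposure (8 points, 5-fold series) of AMG510-resistant NCI-H358 cells plated at 4×10^3 per well.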

The IC50 is the concentration that gives 50% inhibition.

In the case of `C=CC(=O)N1CCN(c2ncnc3ccc(-c4cnc(OC)c(NS(=O)(=O)c5ccc(F)cc5F)c4)cc23)[C@@H](C)C1` [Example 7, (S)—N-(5-(4-(4-acryloyl-2-methylpiperazin-1-yl)quinazolin-6-yl)-2-methoxypyridin-3-yl)-2,4-difluorobenzenesulfonamide], the IC50 in assay [1] stood at 44 nM; in assay [2], 41.7 nM.

In the case of `CC(=O)/C=C/C(=O)N1CCN(c2ncnc3ccc(-c4cnc(OCC(F)(F)F)c(NS(=O)(=O)c5ccc(F)cc5F)c4)cc23)CC1` [Example 159, (E)-2,4-difluoro-N-(5-(4-(4-(4-oxopent-2-enoyl)piperazin-1-yl)quinazolin-6-yl)-2-(2,2,2-trifluoroethoxy)pyridin-3-yl)benzenesulfonamide], the values for the IC50 in assay [1] and in assay [2] were 172 nM and 361 nM, respectively.

In the case of `COc1ncc(-c2ccc3ncnc(N4CCN(C(=O)/C=C/n5ccnn5)CC4)c3c2)cc1NS(=O)(=O)c1ccc(F)cc1F` [Example 10, (E)-N-(5-(4-(4-(3-(1H-1,2,3-triazol-1-yl)acryloyl)piperazin-1-yl)quinazolin-6-yl)-2-methoxypyridin-3-yl)-2,4-difluorobenzenesulfonamide], the IC50 in assay [1] was 24.6 nM; in assay [2], 86.6 nM.

For the molecule `COc1ncc(-c2ccc3ncnc(N4CCN(C(=O)/C=C/C(C)=O)CC4)c3c2)cc1NS(=O)(=O)c1c(F)cccc1F` [Example 22, (E)-2,6-difluoro-N-(2-methoxy-5-(4-(4-(4-oxopent-2-enoyl)piperazin-1-yl)quinazolin-6-yl)pyridin-3-yl)benzenesulfonamide], the 50% inhibitory concentration (IC50) in assay [1] stood at 23.7 nM; in assay [2], 47.9 nM.

On to `COc1ncc(-c2ccc3ncnc(N4CCN(C(=O)/C=C/C(C)=O)CC4)c3c2)cc1NS(=O)(=O)c1c(F)cccc1C#N` [Example 122, (E)-2-cyano-6-fluoro-N-(2-methoxy-5-(4-(4-(4-oxopent-2-enoyl)piperazin-1-yl)quinazolin-6-yl)pyridin-3-yl)benzenesulfonamide], for which the concentration for half-maximal inhibition (IC50) in assay [1] came to 47.9 nM; in assay [2], 128 nM.

For `COc1ccc(Cl)c(S(=O)(=O)Nc2cc(-c3ccc4ncnc(N5CCN(C(=O)/C=C/C(C)=O)CC5)c4c3)cnc2OC)c1` [Example 184, (E)-2-chloro-5-methoxy-N-(2-methoxy-5-(4-(4-(4-oxopent-2-enoyl)piperazin-1-yl)quinazolin-6-yl)pyridin-3-yl)benzene-sulfonamide], the figures for the concentration for half-maximal inhibition (IC50) in assay [1] and in assay [2] were 73.8 nM and 135 nM, respectively.

Regarding `COc1ncc(-c2ccc3ncnc(N4CCN(C(=O)/C=C/C(C)=O)CC4)c3c2)cc1NS(=O)(=O)c1ccc(Cl)cc1F` [Example 177, (E)-4-chloro-2-fluoro-N-(2-methoxy-5-(4-(4-(4-oxopent-2-enoyl)piperazin-1-yl)quinazolin-6-yl)pyridin-3-yl)benzene-sulfonamide], the IC50 came to 36.1 nM in assay [1] and 48.9 nM in assay [2].

For the molecule `COc1ncc(-c2ccc3ncnc(N4CCN(C(=O)/C=C/C(C)=O)CC4)c3c2)cc1NS(=O)(=O)c1cc(F)ccc1F` [Example 94, (E)-2,5-difluoro-N-(2-methoxy-5-(4-(4-(4-oxopent-2-enoyl)piperazin-1-yl)quinazolin-6-yl)pyridin-3-yl)benzenesulfonamide], the IC50 in assay [1] was 62.5 nM; in assay [2], 65.2 nM.

In the case of `COc1ncc(-c2ccc3ncnc(N4CCC5(CC4)CN(C(=O)/C=C/C(C)=O)C5)c3c2)cc1NS(=O)(=O)c1sc(C)nc1C` [Example 178, (E)-N-(2-methoxy-5-(4-(2-(4-oxopent-2-enoyl)-2,7-diazaspiro[3.5]nonan-7-yl)quinazolin-6-yl)pyridin-3-yl)-2,4-dimethyl-thiazole-5-sulfonamide], the concentration for half-maximal inhibition (IC50) in assay [1] worked out at 25.3 nM; in assay [2], 66.2 nM.

As for `COc1ncc(-c2ccc3ncnc(N4CCN(C(=O)/C=C/C(C)=O)CC4)c3c2)cc1NS(=O)(=O)c1ccncc1C` [Example 172, (E)-N-(2-methoxy-5-(4-(4-(4-oxopent-2-enoyl)piperazin-1-yl)quinazolin-6-yl)pyridin-3-yl)-3-methyl-pyridine-4-sulfonamide], the IC50 in assay [1] is 68.1 nM; in assay [2] it was 451 nM.

For `COc1ncc(-c2ccc3ncnc(N4CC5CCC(C4)N5C(=O)/C=C/C(C)=O)c3c2)cc1NS(=O)(=O)c1c(F)cccc1F` [Example 145, 2,6-difluoro-N-(2-methoxy-5-(4-(8-((E)-4-oxopent-2-enoyl)-3,8-diazabicyclo[3.2.1]octan-3-yl)quinazolin-6-yl)pyridin-3-yl)benzenesulfonamide], the results for the IC50 in assay [1] and in assay [2] were 36.2 nM and 223 nM, respectively.

`C=C(C(C)=O)C(=O)N1CCN(c2ncnc3ccc(-c4cnc(OC)c(NS(=O)(=O)c5ccc(F)cc5F)c4)cc23)CC1` [Example 168, 2,4-difluoro-N-(2-methoxy-5-(4-(4-(2-methylene-3-oxobutanoyl)piperazin-1-yl)quinazolin-6-yl)pyridin-3-yl)benzenesulfonamide]: the IC50 was determined as 31.2 nM in assay [1] and 240 nM in assay [2].

Consider `COc1ncc(-c2ccc3ncnc(N4CCN(C(=O)/C=C/C(C)=O)CC4)c3c2)cc1NS(=O)(=O)c1ccc(C#N)cc1F` [Example 123, (E)-4-cyano-2-fluoro-N-(2-methoxy-5-(4-(4-(4-oxopent-2-enoyl)piperazin-1-yl)quinazolin-6-yl)pyridin-3-yl)benzenesulfonamide], for which the IC50 turned out to be 21.2 nM in assay [1] and 118 nM in assay [2].

For `COc1ncc(-c2ccc3ncnc(N4CCN(C(=O)/C=C/C(C)=O)C[C@@H]4C)c3c2)cc1NS(=O)(=O)c1c(F)cccc1F` [Example 46, (S,E)-2,6-difluoro-N-(2-methoxy-5-(4-(2-methyl-4-(4-oxopent-2-enoyl)piperazin-1-yl)quinazolin-6-yl)pyridin-3-yl) benzenesulfonamide], the IC50 amounted to 29.9 nM in assay [1] and 27.8 nM in assay [2].

Take `COc1ncc(-c2ccc3ncnc(N4CCN(C(=O)/C=C/C(C)=O)C[C@@H]4C)c3c2)cc1NS(=O)(=O)c1c(F)cc(F)cc1F` [Example 154, (S,E)-2,4,6-trifluoro-N-(2-methoxy-5-(4-(2-methyl-4-(4-oxopent-2-enoyl)piperazin-1-yl)quinazolin-6-yl)pyridin-3-yl)benzenesulfonamide]: the IC50 in assay [1] was found to be 16.7 nM; in assay [2], 61.6 nM.

For the molecule `COc1ncc(-c2ccc3ncnc(N4CCN(C(=O)/C=C/C(C)=O)CC4)c3c2)cc1NS(C)(=O)=O` [Example 170, (E)-N-(2-methoxy-5-(4-(4-(4-oxopent-2-enoyl)piperazin-1-yl)quinazolin-6-yl)pyridin-3-yl)methane-sulfonamide], the half-inhibitory concentration (IC50) in assay [1] worked out at 61.6 nM; in assay [2], 380 nM.

As to `COc1ncc(-c2ccc3ncnc(N4CCN(C(=O)/C=C/C(C)=O)CC4)c3c2)cc1NS(=O)(=O)c1c(F)cncc1F` [Example 102, (E)-3,5-difluoro-N-(2-methoxy-5-(4-(4-(4-oxopent-2-enoyl)piperazin-1-yl)quinazolin-6-yl)pyridin-3-yl)pyridine-4-sulfonamide], the figures for the IC50 in assay [1] and in assay [2] were 73 nM and 516 nM, respectively.

`COc1ncc(-c2ccc3ncnc(N4CCN(C(=O)/C=C/C(C)=O)C[C@@H]4C)c3c2)cc1NS(=O)(=O)c1ccccc1F` [Example 152, (S,E)-2-fluoro-N-(2-methoxy-5-(4-(2-methyl-4-(4-oxopent-2-enoyl)piperazin-1-yl)quinazolin-6-yl)pyridin-3-yl)benzenesulfonamide]: the IC50 in assay [1] was 29.8 nM; in assay [2], 62.1 nM.

The values are drawn from patent US20250145589A1, “PYRIDINE DERIVATIVE AND USE THEREOF” (SICHUAN HUIYU PHARMACEUTICAL CO., LTD., priority 2021, published 2025).
